Laboratory results taken from US12258321B1 (University of Jeddah, priority 2024, dated 2025).
pIC50: −log10 of the molar value. Blank lines part the entries; values can stand above or below the molecule they belong to.

How the values were obtained:
MCF-7 cells = experiment: MTT cytotoxicity test on MCF-7 breast cancer cells; format: cell-based, human; details: for pIC50: Homo sapiens, MCF7, 24 h, read-out: IC50, cytotoxic activity against MCF7 breast cancer cells
Protocol: The MCF-7 breast cancer cell lines were purchased from VACSERA Tissue Culture Unit (Giza, Egypt). MCF-7 cells were cultured in RPMI medium supplemented with 2 mM glutamine and 10% fetal bovine serum. Both cell cultures included […] streptomycin and 100 units/ml penicillin and were kept in a humidified atmosphere with 5% CO2 at 37° C.
All experiments were performed in triplicate. Data were given as mean±SD.

MCL-1 [1] = experiment: Western blot of MCL-1 expression in MCF7 cells; format: cell-based, human; details: 24 hours, vs untreated
Protocol: (§1) MCF-7 cells were exposed to compounds Comp-1 and Comp-6 for a period of 24 h, after which western blot analysis was conducted using a previously established protocol^21. To assess the release of cytochrome c, cytosolic and mitochondrial fractions were prepared in accordance with the methods outlined by Kawiak et al^21. Specific primary antibodies were utilized viz; anti-β-actin (1:1,000) (Cell Signaling, Danvers, MA, USA), anti-Bcl-2, anti-Bax, and anti-Mcl-1 (1:250) (Santa Cruz, Heidelberg, Germany), anti-ERK1/2, anti-MEK1/2, anti-p-ERK1/2, and anti-p-MEK1/2 (1:1,000) (Cell Signaling), and anti-cytochrome c (1:5,000) (Abcam, UK), and membranes were subjected to an overnight incubation with these antibodies at 4° C. This was followed by a 1 h incubation with HRP-conjugated secondary antibodies (1:2000) (Cell Signaling). The levels of protein were then determined using chemiluminescence (ChemiDoc; Bio-Rad, Waltham, MA, USA) with an HRP substrate (Thermo Scientific, MA, USA).
(§2) The cytotoxic mechanisms of the exemplary compounds Comp-1 and Comp-6 were investigated. Given that apoptosis is a common mechanism of action for many cancer therapies, we analyzed the levels of apoptotic markers BAX, BCL-2 and MCL-1 after treating MCF7 cells with Comp-1 and Comp-6 for 24 hours. Western blot analysis was performed on cell lysates and compared to untreated cell lysates.

MCL-1 [2] = biological target: T1, MCL-1 (Homo sapiens, UniProt Q07820); experiment: MCL-1 inhibition by TR-FRET assay (cell-free); format: binding; details: read-out: IC50 against MCL-1
T1 construct: purchased BPS Bioscience
Protocol: (§3) The effectiveness of inhibiting the MCL-1 and BCL-2 proteins was evaluated using specific assay kits (BPS Bioscience, Sandiego, CA) and corresponding ligands for each protein. […] Measurements were taken of Tb-donor emission at 620 nm followed by dye-acceptor emission at 665 nm, and data analysis was performed using the TR-FRET ratio (665 nm emission/620 nm emission). The FRET value from the positive control was considered as full activity (100%) and the FRET value from the negative control was considered as zero percent activity. Then, % inhibitory activity of test compounds was calculated by the equation: % Activity=FRETS−FRETneg/FRETP−FRETneg×100%
(§4) Where FRETS, FRETneg, and FRETp are sample FRET, negative control FRET, and positive control FRET, respectively. The IC50 values of the test compounds were calculated by nonlinear regression analysis on GraphPad Prism 5 (GraphPad Inc., USA).

BAX = experiment: Western blot of BAX level in MCF7 cells; format: cell-based, human; details: 24 hours
Protocol: as §1, §2

p-ERK1/2 = experiment: Western blot of p-ERK1/2 in EGF-stimulated MCF7 cells; format: cell-based, human; details: MCF7 cells stimulated with EGF for 30 minutes
Protocol: as §1
(§5) To investigate the impact of exemplary compounds on the cancer-promoting MAPK pathway in MCF7 breast cancer cells, we stimulated the cells with epidermal growth factor (EGF) for 30 minutes to induce p-ERK1/2 and p-MEK1/2 protein expression.

BCL-2 [3] = experiment: Western blot of BCL-2 expression in MCF7 cells; format: cell-based, human; details: 24 hours, vs untreated
Protocol: as §1, §2

BCL-2 [4] = biological target: T2, BCL-2 (Homo sapiens, UniProt P10415); experiment: BCL-2 inhibition by TR-FRET assay (cell-free); format: binding; details: read-out: IC50 against BCL-2
T2 construct: purchased BPS Bioscience
Protocol: as §3, §4

p-MEK1/2 = experiment: Western blot of p-MEK1/2 in EGF-stimulated MCF7 cells; format: cell-based, human; details: MCF7 cells stimulated with EGF for 30 minutes
Protocol: as §1, §5

T2 sequence (P10415 whole entry): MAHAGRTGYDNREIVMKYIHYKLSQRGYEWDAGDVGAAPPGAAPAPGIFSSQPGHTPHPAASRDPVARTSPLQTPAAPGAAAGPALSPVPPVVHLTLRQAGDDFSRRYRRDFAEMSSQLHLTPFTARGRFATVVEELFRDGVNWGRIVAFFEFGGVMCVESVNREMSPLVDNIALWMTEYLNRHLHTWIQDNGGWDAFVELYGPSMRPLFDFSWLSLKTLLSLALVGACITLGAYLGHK
T1 sequence (Q07820 whole entry): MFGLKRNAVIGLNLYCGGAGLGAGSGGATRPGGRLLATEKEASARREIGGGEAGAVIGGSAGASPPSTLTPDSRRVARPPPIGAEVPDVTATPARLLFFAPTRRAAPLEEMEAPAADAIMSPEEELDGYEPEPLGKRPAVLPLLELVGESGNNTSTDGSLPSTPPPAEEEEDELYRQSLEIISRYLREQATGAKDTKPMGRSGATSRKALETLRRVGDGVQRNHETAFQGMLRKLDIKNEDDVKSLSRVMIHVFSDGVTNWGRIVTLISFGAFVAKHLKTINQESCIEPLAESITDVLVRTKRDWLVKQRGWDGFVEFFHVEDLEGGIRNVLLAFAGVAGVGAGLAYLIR

SMILES: O=C(Cc1ccc(-n2cc(COc3cccc4ccccc34)nn2)cc1)NCc1ccccc1
pIC50 (MCF-7 cells): 5.73
reduction of MCL-1 expression (MCL-1 [1]): 43.7%
pIC50 (MCL-1 [2]): 6.12
BAX increase compared to untreated cells (Control) (BAX): nine-fold
reduction of p-ERK1/2 signal (p-ERK1/2): 50.7%
reduction of BCL-2 expression (BCL-2 [3]): 55.9%
pIC50 (BCL-2 [4]): 5.72
reduction of p-MEK1/2 signal (p-MEK1/2): 55.9%

pIC50 (MCL-1 [2]): 6.44
pIC50 (BCL-2 [4]): 6.29
SMILES: O=C(Cc1ccc(-n2cc(CO)nn2)cc1)NCc1ccccc1 [Comp-1, N-benzyl-2-(4-(4-(hydroxymethyl)-1H-1,2,3-triazol-1-yl)phenyl)acetamide]
pIC50 (MCF-7 cells): 5.96
potency relative to the reference drug Staurosporine (fold higher) (MCF-7 cells; MCF7 cytotoxicity IC50 ratio): approximately 5 fold
reduction of MCL-1 expression (MCL-1 [1]): 65.4%
BAX increase compared to untreated cells (Control) (BAX): more than five-fold
reduction of p-ERK1/2 signal (p-ERK1/2): 46.1%
reduction of BCL-2 expression (BCL-2 [3]): 65.3%
reduction of p-MEK1/2 signal (p-MEK1/2): 65.3%

SMILES: O=C(Cc1ccc(-n2cc(COCc3ccccc3)nn2)cc1)NCc1ccccc1 [Comp-5, N-benzyl-2-(4-(4-((benzyloxy)methyl)-1H-1,2,3-triazol-1-yl)phenyl)acetamide]
pIC50 (MCF-7 cells): 5.49
